The compounds below were run against PIKFYVE (Homo sapiens, UniProt Q9Y2I7) (assay: KINOMEscan Kinase Assay (PIKFYVE inhibitory activity)). Settings: not given.
Chain of PIKFYVE (Q9Y2I7 whole entry): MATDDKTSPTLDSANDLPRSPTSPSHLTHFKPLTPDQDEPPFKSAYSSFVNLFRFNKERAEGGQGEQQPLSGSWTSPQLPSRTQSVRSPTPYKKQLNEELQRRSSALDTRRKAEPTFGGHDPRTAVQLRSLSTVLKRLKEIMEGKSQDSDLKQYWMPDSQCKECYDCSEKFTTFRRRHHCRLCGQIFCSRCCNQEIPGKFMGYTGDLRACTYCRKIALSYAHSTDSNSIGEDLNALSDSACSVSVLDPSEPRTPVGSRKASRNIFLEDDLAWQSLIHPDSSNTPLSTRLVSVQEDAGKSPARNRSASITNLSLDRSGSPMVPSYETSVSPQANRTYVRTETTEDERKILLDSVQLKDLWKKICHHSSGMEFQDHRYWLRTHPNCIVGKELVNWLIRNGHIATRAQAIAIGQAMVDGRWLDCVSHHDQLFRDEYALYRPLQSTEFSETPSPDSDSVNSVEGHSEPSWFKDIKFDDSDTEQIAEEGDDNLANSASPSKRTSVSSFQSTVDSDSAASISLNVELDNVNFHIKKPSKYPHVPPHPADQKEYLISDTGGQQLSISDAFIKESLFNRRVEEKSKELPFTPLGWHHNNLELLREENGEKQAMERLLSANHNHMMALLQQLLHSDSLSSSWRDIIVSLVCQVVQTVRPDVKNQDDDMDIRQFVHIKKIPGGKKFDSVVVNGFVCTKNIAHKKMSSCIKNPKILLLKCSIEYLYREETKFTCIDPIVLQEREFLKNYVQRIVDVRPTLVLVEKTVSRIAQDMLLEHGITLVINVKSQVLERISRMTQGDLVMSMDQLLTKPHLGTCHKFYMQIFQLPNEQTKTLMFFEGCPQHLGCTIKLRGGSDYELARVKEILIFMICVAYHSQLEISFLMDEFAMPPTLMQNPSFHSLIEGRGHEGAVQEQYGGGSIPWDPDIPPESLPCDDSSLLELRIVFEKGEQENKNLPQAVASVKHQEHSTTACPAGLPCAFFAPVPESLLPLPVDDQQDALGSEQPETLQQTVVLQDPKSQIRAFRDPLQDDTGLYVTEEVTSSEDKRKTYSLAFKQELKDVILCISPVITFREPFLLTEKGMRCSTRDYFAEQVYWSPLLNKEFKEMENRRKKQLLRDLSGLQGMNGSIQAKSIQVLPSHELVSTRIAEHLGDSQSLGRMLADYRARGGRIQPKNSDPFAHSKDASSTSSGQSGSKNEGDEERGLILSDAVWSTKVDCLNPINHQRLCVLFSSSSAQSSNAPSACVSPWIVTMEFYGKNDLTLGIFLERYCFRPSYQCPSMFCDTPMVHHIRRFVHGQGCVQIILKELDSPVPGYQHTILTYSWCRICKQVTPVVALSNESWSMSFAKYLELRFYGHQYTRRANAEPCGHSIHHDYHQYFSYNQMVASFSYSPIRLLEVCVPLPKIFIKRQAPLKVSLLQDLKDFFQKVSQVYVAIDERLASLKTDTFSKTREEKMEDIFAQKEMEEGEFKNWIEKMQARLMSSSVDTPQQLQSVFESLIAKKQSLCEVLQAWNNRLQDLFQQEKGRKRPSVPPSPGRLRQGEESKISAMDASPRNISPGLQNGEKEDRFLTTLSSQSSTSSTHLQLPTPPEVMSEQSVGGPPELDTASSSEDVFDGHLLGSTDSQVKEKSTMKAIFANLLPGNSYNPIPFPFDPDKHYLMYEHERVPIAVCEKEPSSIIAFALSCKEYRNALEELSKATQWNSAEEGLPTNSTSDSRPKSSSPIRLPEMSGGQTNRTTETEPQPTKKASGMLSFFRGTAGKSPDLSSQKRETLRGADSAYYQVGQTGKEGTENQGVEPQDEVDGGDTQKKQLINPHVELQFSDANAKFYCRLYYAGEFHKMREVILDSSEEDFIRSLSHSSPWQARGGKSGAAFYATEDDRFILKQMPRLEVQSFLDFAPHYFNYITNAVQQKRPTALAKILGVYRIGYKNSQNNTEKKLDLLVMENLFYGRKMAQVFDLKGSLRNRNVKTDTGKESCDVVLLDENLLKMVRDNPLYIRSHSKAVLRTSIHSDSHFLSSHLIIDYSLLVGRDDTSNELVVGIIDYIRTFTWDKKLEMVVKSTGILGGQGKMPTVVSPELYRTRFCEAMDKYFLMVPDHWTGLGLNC
`Cc1cccc(-c2ccn(-c3nc(N4CCOCC4)c4nc(CN5CCN(C(C)C)CC5)[nH]c4n3)n2)c1` [Ex. 40, 4-(8-((4-isopropylpiperazin-1-yl)methyl)-2-(3-(m-tolyl)-1H-pyrazol-1-yl)-9H-purin-6-yl)morpholine] showed an IC50 of 1 to 10 nM.

Same assay, conditions: read-out: PIKfyve Activity (% inhibition)
For `Cc1cccc(-c2ccn(-c3cc(N4CCOCC4)c4nc(C(=O)N5CCN(S(C)(=O)=O)CC5)[nH]c4n3)n2)c1` [Ex. 87], the inhibition at 0.001 µM was 20%.
`Cc1cccc(-c2ccn(-c3cc(N4CCOCC4)c4sc(CO)c(C)c4n3)n2)c1` [Ex. 166, (3-Methyl-7-morpholino-5-(3-(m-tolyl)-1H-pyrazol-1-yl)thieno[3,2-b]pyridin-2-yl)methanol] gave an inhibition at 0.001 µM of 34% and an inhibition at 0.003 µM of 14%.
`Cc1cccc(-c2ccn(-c3cc(N4CCOCC4)c4sc(CN5CCOCC5)c(C)c4n3)n2)c1` [Ex. 167, 4-(3-Methyl-2-(morpholinomethyl)-5-(3-(m-tolyl)-1H-pyrazol-1-yl)thieno[3,2-b]pyridin-7-yl)morpholine] showed an inhibition at 0.001 µM of 7%.
Work on `Cc1cccc(-c2ccn(-c3cc(N4CCOCC4)c4sc(CN5CCN(S(C)(=O)=O)CC5)c(C)c4n3)n2)c1` [Ex. 169, 4-(3-Methyl-2-((4-(methylsulfonyl)piperazin-1-yl)methyl)-5-(3-(m-tolyl)-1H-pyrazol-1-yl)thieno[3,2-b]pyridin-7-yl)morpholine] yielded an inhibition at 0.003 µM of 47%.
With `Cc1cccc(-c2ccn(-c3nc(N4CCOCC4)c4nc(CN5CCC(N(C)C)C(F)C5)n(C)c4n3)n2)c1` (centres unmarked) [Ex. 171, 3-fluoro-N,N-dimethyl-1-((9-methyl-6-morpholino-2-(3-(m-tolyl)-1H-pyrazol-1-yl)-9H-purin-8-yl)methyl)piperidin-4-amine] the inhibition at 0.003 µM was 22%.
Compound `Brc1ccn(-c2cc(N3CCOCC3)c3sc(CN4CCOCC4)cc3n2)n1` [Ex. 173, 4-(5-(3-Bromo-1H-pyrazol-1-yl)-2-(morpholinomethyl)thieno[3,2-b]pyridin-7-yl)morpholine] has an inhibition at 0.001 µM of 18%.
With `CC(=O)c1cccc(-c2ccn(-c3cc(N4CCOCC4)c4sc(CN5CCOCC5)cc4n3)n2)c1` [Ex. 184, 1-(3-(1-(7-Morpholino-2-(morpholinomethyl)thieno[3,2-b]pyridin-5-yl)-1H-pyrazol-3-yl)phenyl) ethan-1-one] the inhibition at 0.005 µM was 10%.
With `Cc1cccc(-c2ccn(-c3nc(N4CCOCC4)c4sc(C#CCN(C)C)cc4n3)n2)c1` [Ex. 207, N,N-Dimethyl-3-(4-morpholino-2-(3-(m-tolyl)-1H-pyrazol-1-yl)thieno[3,2-d]pyrimidin-6-yl)prop-2-yn-1-amine] the inhibition at 0.001 µM was 35%.
In the case of `Cc1cccc(-c2ccn(-c3cc(N4CCOCC4)c4sc(NC(=O)C5COC5)cc4n3)n2)c1` [Ex. 232], the inhibition at 0.001 µM is reported as 24%.
With `Cc1cccc(-c2nc(-c3nc(N4CCOCC4)c4sc(CN5CCN(S(C)(=O)=O)CC5)cc4n3)co2)c1` [Ex. 241] the inhibition at 0.003 µM was 0%.
Compound `Cc1cccc(-c2nc(-c3cc(N4CCOCC4)c4sc(CN5CCN(S(C)(=O)=O)CC5)cc4n3)co2)c1` [Ex. 242] has an inhibition at 0.003 µM of 8%.
Compound `Cc1cccc(-c2nc(-c3cc(N4CCOCC4)c4sc(CN5CCN(S(C)(=O)=O)CC5)cc4n3)cs2)c1` [Ex. 244] has an inhibition at 0.001 µM of 37%.

Same assay, conditions: read-out: PIKfyve Activity (PIKfyve % inhibition)
In the case of `Cc1cccc(-c2ccn(-c3nc(N4CCOCC4)c4nc(C(=O)N5CCN(S(C)(=O)=O)CC5)[nH]c4n3)n2)c1` [Ex. 78], the inhibition at 0.001 µM is reported as 52 to 100%.
For `Cc1cccc(-c2ccn(-c3cc(N4CCOCC4)c4nc(CN5CCN(C(C)C)CC5)n(C)c4n3)n2)c1` [Ex. 79, 4-(2-((4-isopropylpiperazin-1-yl)methyl)-3-methyl-5-(3-(m-tolyl)-1H-pyrazol-1-yl)-3H-imidazo[4,5-b]pyridin-7-yl)morpholine], the inhibition at 0.001 µM was 52 to 100%.
`Cc1cccc(-c2ccn(-c3cc(N4CCOCC4)c4nc(CN5CCC(N(C)C)C(F)C5)n(C)c4n3)n2)c1` (centres unmarked) [Ex. 82, 3-fluoro-N,N-dimethyl-1-((3-methyl-7-morpholino-5-(3-(m-tolyl)-1H-pyrazol-1-yl)-3H-imidazo[4,5-b]pyridin-2-yl)methyl)piperidin-4-amine] was tested, and the inhibition at 0.001 µM was 52 to 100%.
`Cc1cccc(-c2ccn(-c3cc(N4CCOCC4)c4nc(CN5CCC(N6CCC6)C(F)C5)n(C)c4n3)n2)c1` (centres unmarked) [Ex. 83, 4-(2-((4-(azetidin-1-yl)-3-fluoropiperidin-1-yl)methyl)-3-methyl-5-(3-(m-tolyl)-1H-pyrazol-1-yl)-3H-imidazo[4,5-b]pyridin-7-yl)morpholine] was tested, and the inhibition at 0.001 µM was 52 to 100%.
Work on `Cc1cccc(-c2ccn(-c3nc(N4CCOCC4)c4nc(C(=O)N5CCC(N6CCC6)C(F)C5)[nH]c4n3)n2)c1` (centres unmarked) [Ex. 85, (4-(Azetidin-1-yl)-3-fluoropiperidin-1-yl) (6-morpholino-2-(3-(m-tolyl)-1H-pyrazol-1-yl)-9H-purin-8-yl)methanone] yielded an inhibition at 0.001 µM of 52 to 100%.
`Cc1cccc(-c2ccn(-c3nc(N4CCOCC4)c4nc(C(=O)N5CCN(C(C)C)CC5)[nH]c4n3)n2)c1` [Ex. 86] showed an inhibition at 0.001 µM of 52 to 100%.
For `Cc1cccc(-c2ccn(-c3cc(N4CCOCC4)c4nc(C(=O)N5CCC(N6CCC6)C(F)C5)[nH]c4n3)n2)c1` (centres unmarked) [Ex. 89], the inhibition at 0.001 µM was 52 to 100%.
With `Cc1cccc(-c2ccn(-c3cc(N4CCOCC4)c4sc(CN5CCN(C(C)C)CC5)c(C)c4n3)n2)c1` [Ex. 132, 4-(2-((4-Isopropylpiperazin-1-yl)methyl)-3-methyl-5-(3-(m-tolyl)-1H-pyrazol-1-yl)thieno[3,2-b]pyridin-7-yl)morpholine] the inhibition at 0.001 µM was 52 to 100%.
`Cc1cccc(-c2ccn(-c3cc(N4CCOCC4)c4sc(C(=O)NC5CCOCC5)cc4n3)n2)c1` [Ex. 177, 7-Morpholino-N-(tetrahydro-2H-pyran-4-yl)-5-(3-(m-tolyl)-1H-pyrazol-1-yl)thieno[3,2-b]pyridine-2-carboxamide] gave an inhibition at 0.001 µM of 52 to 100%.
In the case of `Cc1cccc(-c2ccn(-c3cc(N4CCOCC4)c4sc(C(=O)NC5COC5)cc4n3)n2)c1` [Ex. 179, 7-Morpholino-N-(oxetan-3-yl)-5-(3-(m-tolyl)-1H-pyrazol-1-yl)thieno[3,2-b]pyridine-2-carboxamide], the inhibition at 0.001 µM is reported as 52 to 100%.
`Cc1cccc(-c2ccn(-c3nc(N4CCOCC4)c4sc(/C=C/CN5CCN(C)CC5)cc4n3)n2)c1` [Ex. 180] gave an inhibition at 0.001 µM of 52 to 100%.
Compound `Cc1cccc(-c2ccn(-c3cc(N4CCOCC4)c4sc(C(=O)NC5CC5)cc4n3)n2)c1` [Ex. 183, N-cyclopropyl-7-morpholino-5-(3-(m-tolyl)-1H-pyrazol-1-yl)thieno[3,2-b]pyridine-2-carboxamide] has an inhibition at 0.001 µM of 52 to 100%.
With `Cc1cccc(-c2ccn(-c3cc(N4CCOCC4)c4sc(C(=O)NC5CCN(C)CC5)cc4n3)n2)c1` [Ex. 186, N-(1-Methylpiperidin-4-yl)-7-morpholino-5-(3-(m-tolyl)-1H-pyrazol-1-yl)thieno[3,2-b]pyridine-2-carboxamide] the inhibition at 0.001 µM was 52 to 100%.
For `Cc1cccc(-c2ccn(-c3cc(N4CCOCC4)c4sc(C(=O)NC5CCCN(C)C5)cc4n3)n2)c1` (centres unmarked) [Ex. 187, N-(1-Methylpiperidin-3-yl)-7-morpholino-5-(3-(m-tolyl)-1H-pyrazol-1-yl)thieno[3,2-b]pyridine-2-carboxamide], the inhibition at 0.001 µM was 52 to 100%.
`Cc1cccc(-c2ccn(-c3cc(N4CCOCC4)c4sc(C(=O)NC5CCN(C)C5)cc4n3)n2)c1` (centres unmarked) [Ex. 200, N-(1-Methylpyrrolidin-3-yl)-7-morpholino-5-(3-(m-tolyl)-1H-pyrazol-1-yl)thieno[3,2-b]pyridine-2-carboxamide] was tested, and the inhibition at 0.001 µM was 52 to 100%.
Work on `Cc1cccc(-c2ccn(-c3cc(N4CCOCC4)c4sc(C(=O)NC5CN(C)C5)cc4n3)n2)c1` [Ex. 201, N-(1-Methylazetidin-3-yl)-7-morpholino-5-(3-(m-tolyl)-1H-pyrazol-1-yl)thieno[3,2-b]pyridine-2-carboxamide] yielded an inhibition at 0.001 µM of 52 to 100%.
With `Cc1cccc(-c2ccn(-c3nc(N4CCOCC4)c4sc(NCCN5CCOCC5)nc4n3)n2)c1` [Ex. 202, 7-Morpholino-N-(2-morpholinoethyl)-5-(3-(m-tolyl)-1H-pyrazol-1-yl)thiazolo-[4,5-d]pyrimidin-2-amine] the inhibition at 0.001 µM was 52 to 100%.
`Cc1cccc(-c2ccn(-c3nc(N4CCOCC4)c4sc(N(C)C5CCN(C)CC5)nc4n3)n2)c1` [Ex. 208, N-Methyl-N-(1-methylpiperidin-4-yl)-7-morpholino-5-(3-(m-tolyl)-1H-pyrazol-1-yl)thiazolo[4,5-d]pyrimidin-2-amine] showed an inhibition at 0.001 µM of 52 to 100%.
`Cc1cccc(-c2ccn(-c3nc(N4CCOCC4)c4sc(NCCS(C)(=O)=O)nc4n3)n2)c1` [Ex. 209, N-(2-(Methylsulfonyl)ethyl)-7-morpholino-5-(3-(m-tolyl)-1H-pyrazol-1-yl)thiazolo[4,5-d]pyrimidin-2-amine] showed an inhibition at 0.001 µM of 52 to 100%.
Work on `Cc1cccc(-c2ccn(-c3cc(N4CCOCC4)c4sc(C(=O)N5CCN(C)CC5)cc4n3)n2)c1` [Ex. 217, (4-Methylpiperazin-1-yl) (7-morpholino-5-(3-(m-tolyl)-1H-pyrazol-1-yl)thieno[3,2-b]pyridin-2-yl)methanone] yielded an inhibition at 0.001 µM of 52 to 100%.
`Cc1cccc(-c2ccn(-c3cc(N4CCOCC4)c4sc(NC(=O)C5CCN(C)CC5)cc4n3)n2)c1` [Ex. 235] was tested, and the inhibition at 0.001 µM was 52 to 100%.
With `Cc1cccc(-c2ccn(-c3cc(N4CCOCC4)c4sc(C(=O)N5CCC(N6CCC6)C(F)C5)cc4n3)n2)c1` (centres unmarked) [Ex. 236] the inhibition at 0.001 µM was 52 to 100%.
Compound `Cc1cccc(-c2ccn(-c3cc(N4CCOCC4)c4sc(C(=O)N5CCC(N6CC(F)C6)CC5)cc4n3)n2)c1` [Ex. 237] has an inhibition at 0.001 µM of 52 to 100%.
Work on `Cc1cccc(-c2ccn(-c3cc(N4CCOCC4)c4sc(C(=O)N5CCC(N6CC(F)C6)C5)cc4n3)n2)c1` (centres unmarked) [Ex. 238] yielded an inhibition at 0.001 µM of 52 to 100%.
In the case of `Cc1cccc(-c2ccn(-c3cc(N4CCOCC4)c4sc(C(=O)N5CC(F)C(N6CCC6)C5)cc4n3)n2)c1` (centres unmarked) [Ex. 239], the inhibition at 0.001 µM is reported as 52 to 100%.
For `Cc1cccc(-c2ccn(-c3cc(N4CCOCC4)c4sc(C(=O)N5CCN(S(C)(=O)=O)CC5)cc4n3)n2)c1` [Ex. 240], the inhibition at 0.001 µM was 52 to 100%.
For `Cc1cccc(-c2nc(-c3nc(N4CCOCC4)c4sc(CN5CCN(S(C)(=O)=O)CC5)cc4n3)cs2)c1` [Ex. 243], the inhibition at 0.001 µM was 52 to 100%.
With `CNC(=O)c1cc2nc(-n3ccc(-c4cccc(C)c4)n3)cc(N3CCOCC3)c2s1` [Ex. 247] the inhibition at 0.001 µM was 52 to 100%.
`Cc1cccc(-c2ccn(-c3cc(N4CCOCC4)c4sc(C(=O)NC5(C)COC5)cc4n3)n2)c1` [Ex. 252] was tested, and the inhibition at 0.001 µM was 52 to 100%.
For `Cc1cccc(-c2ccn(-c3cc(N4CCOCC4)c4sc(C(=O)NCCN(C)C)cc4n3)n2)c1` [Ex. 255], the inhibition at 0.001 µM was 52 to 100%.

From US20260297108A1, “NOVEL INHIBITORS OF PIKFYVE AND METHODS USING SAME” (priority 2023, published 2026)
